# Data: patent publication US10590166B2, “Peptides useable for treating cancer” (Allegro Pharmaceuticals, LLC, priority 2009, dated 2020)
# Several values for one entry are separate records, joined by “and”; a condition that tells them apart may be missing. Equal entries are not always repeated. Where two headings read alike, the source gives them in different places. Square brackets hold non-standard residues; d marks the D form. Peptide text beside a SMILES is read from it. Cya = N[CH](CS(=O)(=O)O)C(=O)O
# Tests used:
# New Zealand Rabbits = assay: Ocular toxicity of intravitreal Compound 1 with and without urea (Table A); assay type: in vivo; conditions: 24 hour follow up
# [1] = tested on: human umbilical vein endothelial cells (HUVEC); assay: wound-healing assay with HUVEC on fibronectin coated surface; assay type: cell-based
# Method: To test the anti-adhesive properties of RGCysteic Acid peptides in vitro, a wound-healing assay was performed with human umbilical vein endothelial cells (HUVEC). HUVEC were seeded and allowed to grow to a confluent monolayer on a fibronectin coated surface. A wound (a scratch rift) was created by dragging a small pipette tip across the HUVEC monolayer. The cells were then incubated in fresh growth medium containing the RGCysteic Acid peptide (Compound 1; 10 mM), and the wound area was imaged in five different fields at various time points (0, 4, 8, 12, 16, 20, 24 hours) to determine the kinetics of wound closure. The level of wound closure was quantified by determining the fraction of the original wound area that was re-occupied by HUVEC through cellular adhesion, migration and proliferation.
# In control studies, the following peptides were used in place of RGCysteic Acid (Compound 1): cyclic-RGD peptide (1 mM), positive control) and RGE peptide (1 mM, negative control).
# The results are shown as a percentage of the original area. The error bars correspond to the standard deviation in wound size across 2-6 independent trials.
# CNV mouse model = assay: Suppression of laser-induced choroidal neovascularization, CNV mouse model; assay type: in vivo; conditions: 14 days after laser; for size of CNV lesions: vs vehicle
# Method: In this example, Compound 1 was tested to determine whether it CNV in a published mouse model. See, Umeda N, Kachi S, Akiyama H, Zahn G, Vossmeyer D, Stragies R, Campochiaro P., Suppression and Regression of Choroidal Neovascularization by Systemic Administration of an α5β1 Integrin Antagonist: Molecular Pharmacology:2006, 69, 1820-1828.
# The study mice had laser-induced rupture of Bruch's membrane followed by an intravitreal injection of a single dose of COMPOUND 1 at the concentration of 1.0 μg/1 μL, 25 μg/1 μL and at 50 μg/1 μL, as well as a vehicle immediately after laser treatment. Fourteen days after laser treatment, the area of CNV was measured by image analysis. […] FIG. 8 is a graph showing total area of neovascularization in a CNV mouse model 14 days after treatment with various doses of Compound 1 and control (vehicle only).
# [2] = tested on: human subjects with diabetic macular edema; assay type: in vivo; conditions: for persistence of improvements in BCVA and OCT central macular thickness off treatment: follow up after the last intravitreal treatment
# Method: Fifteen human patients with late stage DME received three monthly intravitreal injections of Compound 1 as part of a multiple-injection Phase 1 Human Safety Study. […] While this study was firstly a safety study, efficacy was also assessed. Eight of the patients patients improved three or more lines in BCVA (representing 53% of the treated patients) and four of the patients improved from nearly legally blind to functional vision in the 20/40 to 20/60 range. […] These improvements in BCVA and OCT central macular thickness persisted for 90 days of follow up off treatment.
# The objective of the Phase 1 study was to evaluate the safety and initial efficacy of the ophthalmic intravitreal injection of COMPOUND 1 in human subjects with end stage diabetic macular edema (DME). The primary endpoint of this study was the observation of dose limiting toxicity. A secondary endpoint of this study was observation of a clinical benefit in reducing the diabetic macular edema in BCVA (ETDRS lines) and OCT central macular thickness.
# Fifteen human subjects with chronic end-stage DME completed this open label study. Subjects at enrollment had BCVA of 20/100 or worse primarily due to DME and had not undergone anti-VEGF treatment or focal laser within 90 days prior to enrollment. Many study subjects were refractory to previous Avastin treatments. Study subjects received three monthly intravitreal injections of 2.5 mg COMPOUND 1 and were followed monthly for an additional 3 months. Safety measurements were followed by BCVA, slit lamp evaluation, dilated fundus exam, 10P measurements, OCT, FA, Fundus Photos, B-scan ultrasound, and ERG.
# [3] = single intravitreal 2.5 mg/100 μL
# [4] = single intravitreal injection, 8 eyes per group
# [5] = 15 DME patients, three monthly intravitreal injections of 2.5 mg
# [6] = 15 DME patients, three monthly intravitreal injections of 2.5 mg, listed as COMPOUND 1
compound,measurement,setting,value
"CC(O)C(NC(=O)C(CS(=O)(=O)O)NC(=O)CNC(=O)C(CCCNC(=N)N)NC(=O)CN)C(=O)N1CCCC1C(=O)O (stereo not shown) [Compound 1, Glycinyl-Arginyl-Glycinyl-Cysteic-Threonyl-Proline-COOH] (H-GRG[Cya]TP-OH; configuration not given here)",Ocular toxicity: RPE toxicity,New Zealand Rabbits; [3],No RPE toxicity
same,Ocular toxicity: cataract formation,New Zealand Rabbits; [3],No cataract
same,Ocular toxicity: exudates,New Zealand Rabbits; [3],No exudates
same,Ocular toxicity: inflammation,New Zealand Rabbits; [3],No inflammation
same,Ocular toxicity: retinal hemorrhage,New Zealand Rabbits; [3],No retinal
same,"Ocular toxicity: retinal tears, breaks or detachments",New Zealand Rabbits; [3],"No retinal tears,"
same,Ocular toxicity: retinal vascular compromise,New Zealand Rabbits; [3],No retinal
same,Total PVD,New Zealand Rabbits; [4],75% Total PVD
same,Vitreous liquefaction,New Zealand Rabbits; [4],Complete
same,inhibition of cell adhesion,"[1]; HUVEC wound healing model, in 12 hours",74%
same,inhibition of HUVEC wound healing,"[1]; after 24 hours, Compound 1 10 mM, control peptides 1 mM",70%
same,apoptosis of the HUVEC cells,[1]; wound healing assay,without apoptosis
same,size of CNV lesions,CNV mouse model; single intravitreal 1.0 μg/1 μL,somewhat smaller
same,reduction in CNV compared to vehicle treated eyes,"CNV mouse model; single intravitreal 25 μg/1 μL, statistically significant",43%
same,size of CNV lesions,CNV mouse model; single intravitreal 50 μg/1 μL,somewhat smaller
same,number of patients with no material increase in CMT,[2]; 15 DME patients,7 out of 15 patients
same,number of subjects with no material change in BCVA,[2]; 15 DME patients,7 out of 15 subjects
same,share of treated patients improved three or more lines in BCVA,"[2]; 15 DME patients, by study day 90 after 3 intravitreal injections of 2.5 mg",53%
same,number of patients improved from nearly legally blind to functional vision in the 20/40 to 20/60 range,"[2]; 15 DME patients, three monthly intravitreal injections",four
same,number of patients with reduction in CMT by 30% to 80%,[2]; [5],eight
same,number of subjects improved BCVA by three or more (three to five) lines,[2]; [5],Eight
same,share of subjects with reduction in OCT central macular thickness of at least 30%,[2]; [5],53%
same,number of patients with reduction in CMT by 30% to 80%,[2]; [6],8 out of 15 and 8 of 15 patients
same,number of subjects improved BCVA by three or more (three to five) lines,[2]; [6],8 out of 15 and 8 of 15 subjects
same,maximum reduction in macular edema (OCT),[2]; 608 to 103,505 microns
same,"maximum reduction in macular edema (OCT), relative",[2]; 608 to 103 microns,~80%
same,persistence of improvements in BCVA and OCT central macular thickness off treatment,[2],90 days
same,persistence of improvements in BCVA and OCT central macular thickness off treatment,[2]; listed as COMPOUND 1,at least 90 days
same,ERG changes,[2]; in vivo,No ERG changes
same,corneal decompensation or cataract progression,[2]; in vivo,No corneal decompensation or cataract progression
same,elevations in IOP,[2]; in vivo,No sustained elevations in IOP
same,inflammatory reactions in the anterior chamber or vitreous cavity,[2]; in vivo,no reports of inflammatory reactions
same,retinal tears or retinal detachments,[2]; in vivo,No retinal tears or retinal detachments
same,vascular occlusions,[2]; in vivo,no vascular occlusions
